{"source": "paper PMC5104425", "about": "“A Novel Selective Inhibitor of Delta-5 Desaturase Lowers Insulin Resistance and Reduces Body Weight in Diet-Induced Obese C57BL/6J Mice” (PLoS ONE, 2016)", "key": {"[1]": {"target": "T1, rat D5D (Rattus norvegicus, UniProt Q920R3)", "T1 construct": "using hepatic microsomes prepared from SD rats; from tissue; host or cells: liver microsomes of SD rats (CLEA, Japan)", "T1 sequence (Q920R3 whole entry)": "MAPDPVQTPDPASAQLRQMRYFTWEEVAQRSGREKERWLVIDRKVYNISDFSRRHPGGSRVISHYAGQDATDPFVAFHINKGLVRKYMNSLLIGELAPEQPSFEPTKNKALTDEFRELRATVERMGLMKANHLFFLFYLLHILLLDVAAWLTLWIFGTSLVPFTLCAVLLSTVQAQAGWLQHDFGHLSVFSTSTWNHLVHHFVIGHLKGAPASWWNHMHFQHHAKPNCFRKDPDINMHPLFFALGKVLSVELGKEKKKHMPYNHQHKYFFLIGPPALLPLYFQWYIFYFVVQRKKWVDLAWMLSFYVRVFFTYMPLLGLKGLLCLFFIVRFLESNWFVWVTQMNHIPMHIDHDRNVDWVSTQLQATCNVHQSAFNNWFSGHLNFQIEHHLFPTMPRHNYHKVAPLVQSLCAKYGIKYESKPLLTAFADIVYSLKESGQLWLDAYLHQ", "experiment": "In vitro enzyme assay for desaturase activity (hepatic microsomes), D5D", "type": "biochemical", "description": "(§1) Therefore, we also confirmed that compound-326 has no effect on D9D activity. Inhibitory activity of compound-326 on rat D5D, D6D, and D9D was evaluated using hepatic microsomes prepared from SD rats (CLEA, Japan) as described previously. Assays were performed in a total volume of 30 μL in 96-well plates in a buffer containing 100 mM NaHPO4, 150 mM KCl, 10 mM NaF, 1.5 mM glutathione, 3 mM MgCl2, 1 mM NADH, 3 mM ATP, 0.3 mM CoA-SH, and 0.1% fatty acid free bovine serum albumin (BSA, Sigma, St. Louis, MO); and 0.1 μCi/well of [^14C] DGLA or [^14C] linoleic acids (ARC, St. Louis, MO) were used as substrates for measuring D5D and D6D activities, respectively. After pre-incubation of the test compound with rat liver microsomes (final 1.0 mg/mL) for 5 min, the reaction was started by the addition of NADH, ATP, and the substrates, and the reaction mixture was incubated for another 120 min at room temperature. For D9D assay, [^14C] stearoyl-CoA (PerkinElmer, Waltham, MA) was used in the absence of NADH, ATP, and CoA-SH, and D9D enzyme reaction was performed for 30 min. The reactions were then terminated by the addition of 0.63 N NaOH. […] 2.3 (Fujifilm) and IC50 values were determined using the conversion ratio from the radioactive substrates (20:3n6, 18:2n6 and 18:0) to the products (20:4n6, 18:3n6 and 18:1n9)."}, "[2]": {"target": "T2, rat D6D (Rattus norvegicus, UniProt Q9Z122)", "T2 construct": "using hepatic microsomes prepared from SD rats; from tissue; host or cells: liver microsomes of SD rats (CLEA, Japan)", "T2 sequence (Q9Z122 whole entry)": "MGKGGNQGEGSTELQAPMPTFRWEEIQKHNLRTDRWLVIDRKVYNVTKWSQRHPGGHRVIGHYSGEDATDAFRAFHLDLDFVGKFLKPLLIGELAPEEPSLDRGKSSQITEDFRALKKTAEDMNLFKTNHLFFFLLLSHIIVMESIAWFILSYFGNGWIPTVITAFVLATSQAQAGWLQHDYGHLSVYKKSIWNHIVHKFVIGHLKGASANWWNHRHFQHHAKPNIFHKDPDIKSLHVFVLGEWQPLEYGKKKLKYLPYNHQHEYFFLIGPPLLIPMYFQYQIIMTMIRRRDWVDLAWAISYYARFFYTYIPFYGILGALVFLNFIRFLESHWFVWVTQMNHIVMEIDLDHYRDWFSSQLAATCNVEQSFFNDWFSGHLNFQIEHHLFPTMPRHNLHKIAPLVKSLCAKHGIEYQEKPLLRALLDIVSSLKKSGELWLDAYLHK", "experiment": "In vitro enzyme assay for desaturase activity (hepatic microsomes), D6D", "type": "biochemical", "description": "as §1"}, "[3]": {"target": "T3, rat D9D (Rattus norvegicus, UniProt P07308)", "T3 construct": "using hepatic microsomes prepared from SD rats; from tissue; host or cells: liver microsomes of SD rats (CLEA, Japan)", "T3 sequence (P07308 1-358)": "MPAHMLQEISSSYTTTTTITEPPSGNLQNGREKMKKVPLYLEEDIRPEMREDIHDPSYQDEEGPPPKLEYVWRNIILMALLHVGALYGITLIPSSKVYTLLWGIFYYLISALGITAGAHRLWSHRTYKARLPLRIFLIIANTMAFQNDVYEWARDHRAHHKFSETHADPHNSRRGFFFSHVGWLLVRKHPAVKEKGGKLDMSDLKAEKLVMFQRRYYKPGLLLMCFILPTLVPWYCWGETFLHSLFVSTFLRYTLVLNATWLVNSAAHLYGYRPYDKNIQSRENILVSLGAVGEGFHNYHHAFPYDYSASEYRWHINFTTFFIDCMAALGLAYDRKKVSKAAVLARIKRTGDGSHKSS", "experiment": "In vitro enzyme assay for desaturase activity (hepatic microsomes), D9D", "type": "biochemical", "description": "as §1"}, "[4]": {"target": "T4, human D9D (Homo sapiens, UniProt O00767)", "T4 construct": "endogenous in cells; host or cells: HepG2", "T4 sequence (O00767 1-359)": "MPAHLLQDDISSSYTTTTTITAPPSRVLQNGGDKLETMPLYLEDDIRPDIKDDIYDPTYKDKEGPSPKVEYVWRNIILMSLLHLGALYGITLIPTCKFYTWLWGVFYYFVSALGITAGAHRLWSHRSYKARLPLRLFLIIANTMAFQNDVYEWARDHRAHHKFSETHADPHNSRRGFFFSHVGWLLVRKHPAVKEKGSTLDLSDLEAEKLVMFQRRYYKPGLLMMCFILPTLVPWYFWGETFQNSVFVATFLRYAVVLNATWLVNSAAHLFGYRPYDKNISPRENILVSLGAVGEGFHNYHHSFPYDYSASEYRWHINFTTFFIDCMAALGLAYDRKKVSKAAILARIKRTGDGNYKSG", "experiment": "In vitro cell-based assay for desaturase activity (HepG2), D9D", "description": "HepG2 cells were seeded in 96-well cell culture plates at 100 000 cells/well and incubated overnight in DMEM supplemented with 10% fetal bovine serum, 100 U/mL penicillin, and 100 μg/mL streptomycin in 5% CO2 at 37°C. The cells were washed twice with 200 μL of PBS and incubated with the test compounds in DMEM with 0.1% fatty acid free BSA for 30 min. Then, 0.1 μCi/well of [^14C]-labeled DGLA, linoleic acid, and stearic acid (ARC, St. Louis, MO) were added for each desaturase assay. After incubation for 3 h at 37°C, the cells were washed 3 times with 200 μL of PBS to remove [^14C]-labeled substrates in the medium and 0.63 N of NaOH was added to saponify fatty acids. Radioactive substrates and products were extracted, separated, and analyzed using the method as described above."}}, "note": "pIC50: −log10 of the molar value.", "data": [{"molecule": "O=C1Cc2c(nc(OCC(F)(F)C(F)(F)F)n(-c3ccc(OCC(F)(F)F)cc3)c2=O)N1", "note": "[Compound-326, 2-(2,2,3,3,3-Pentafluoropropoxy)-3-[4-(2,2,2-trifluoroethoxy)phenyl]-5,7-dihydro-3H-pyrrolo[2,3-d]pyrimidine-4,6-dione]", "values": [{"measurement": "pIC50", "setting": "[1]", "result": 7.14}, {"measurement": "inhibition of D6D activity", "setting": "[2]", "result": "almost no inhibition"}, {"measurement": "pIC50", "setting": "[2]; Enzyme (hepatic microsomes)", "result": "< 5.00"}, {"measurement": "pIC50", "setting": "[3]; Enzyme (hepatic microsomes), rat", "result": "< 5.00"}, {"measurement": "effect on D9D activity", "setting": "[3]; species not given", "result": "no effect"}, {"measurement": "pIC50", "setting": "[4]", "result": "< 5.00"}]}]}
